Reference: patent US11768205B2, “Methods and materials for identifying and treating cancers having elevated levels of phosphorylated ubiquitin” (Mayo Foundation for Medical Education and Research, priority 2017, dated 2023)

Experiments:
NIH-3T3 cells = assay: Western blot of Ub conjugates after FGFb; assay type: cell-based, mouse
Procedure: FIG. 6. FGFR activation increases cellular Ub conjugates. (A to D). NIH-3T3 cells were serum starved for 48 hours and then treated with 20 ng/mL FGFb and harvested at different time course. Total Ub conjugates (A), K48-linked conjugates (B), and K63-linked conjugates (C) were determined by Western blot, and their intensities were quantitated and normalized to that of β-actin and then to time 0 in each group (D). Data were mean±SD of three independent experiments. (**: p<0.01, Student's t-test). (E to H). HEK293 cells were transfected with empty vector (Ctrl), FGFR2 wide type, or FGFR2 kinase dead mutant (KR). Total Ub conjugates (E), K48-linked conjugates (F), and K63-linked conjugates (G) were determined by Western blot, and their intensities were quantitated and normalized to that of β-actin and then to control in each group (H). Data were mean±SD of three independent experiments. (**: p<0.01, Student's t-test). (I to L). NIH-3T3 cells were serum starved for 48 hours and then treated with vehicle, FGFb, or FGFb and FGF inhibitor TKI-258. Total Ub conjugates (I), K48-linked conjugates (J), and K63-linked conjugates (K) were determined by Western blot, and their intensities were quantitated and normalized to that of β-actin and then to control in each group (L). Data were mean±SD of three independent experiments. (**: p<0.01, Student's t-test).
Cell lysates were prepared, and immunoprecipitation and immunoblotting were performed as described elsewhere (Deng et al., Mol. Cell, 61:614-624 (2016)). In brief, cells were lysed with NETN buffer (20 mM Tris-HCl, pH 8.0, 100 mM NaCl, 1 mM EDTA, 0.5% Nonidet P-40) containing 50 mM β-glycerophosphate, 10 mM NaF, and 1 mg/mL each of pepstatin A and aprotinin. Whole cell lysates were centrifuged at 12000 rpm for 15 minutes. Whole cell lysates were incubated with 2 of antibody and protein A or protein G Sepharose beads (Amersham Biosciences) for 2 hours or overnight at 4° C. The immunocomplexes were then washed with NETN buffer for three times and separated by SDS-PAGE. Immunoblotting was performed following standard procedures. […]

MDA-MB-468 cells [1] = assay: Western blot of total, K48-linked and K63-linked Ub conjugates after EGF; assay type: cell-based, human
Procedure: FIG. 3. EGFR enhances proteasomal degradation and promotes K48-linked ubiquitin conjugates. (A). MDA-MB-468 cells were serum starved for 24 hours and labeled with ^35S-Met for 24 hours. […] The rate of protein degradation was shown as the fraction of radiolabelled protein remaining over time. Data were mean±SD of three independent experiments. (**: p<0.01, two-way ANOVA test). (B and C). MDA-MB-468 cells were treated as in (A), except that 20 nM bortezomib (B) or 10 μM chloroquine (C) was present in the chase media. Data were mean±SD of three independent experiments. (**: p<0.01, two-way ANOVA test). (D). […] Total Ub conjugates, K48-linked conjugates, and K63-linked conjugates were determined by Western blot, and their intensities were quantitated and normalized to that of β-actin and then to time 0 in each group. Data were mean±SD of three independent experiments. (**: p<0.01, Student's t-test). (E). […] Total Ub conjugates, K48-linked conjugates, and K63-linked conjugates were determined by Western blot, and their intensities were quantitated and normalized to that of β-actin and then to control in each group. Data were mean±SD of three independent experiments. […] Total Ub conjugates, K48-linked conjugates, and K63-linked conjugates were determined by Western blot, and their intensities were quantitated and normalized to that of β-actin and then to time 0 in each group. […]

[2] = system: NIH-3T3 cells transformed by EGFR L858R; assay: Cell proliferation and MTS assay; assay type: cell-based, mouse; conditions: EGFR L858R transformed cells compared to Ctrl cells; FIG. 14G
Procedure: FIG. 14. […] (A-D). NIH-3T3 cells were infected with virus expressing EGFR DM mutant. Cells were harvested at different times after infection. Total Ub conjugates (A), K48-linked conjugates (B), and K63-linked conjugates (C) were determined by Western blot, and their intensities were quantitated and normalized to that of β-actin. Data were mean±SD of three independent experiments. (**: p<0.01, Student's t-test). (E) NIH-3T3 cells were infected with virus expressing EGFR DM mutant. Cells were harvested at different times after infection. Cell lysates were blotted with an anti-pY59 antibody. (F). NIH-3T3 stably expressing empty vector (Ctrl) or EGFR L858R mutant were serum starved for 48 hours and were labeled with ^35S Met for 24 hours in the absence of serum. […] At different time points, cells were harvested, and radiolabeled protein remaining in the cell was measured. The rate of protein degradation was shown as the fraction of radiolabeled protein remaining over time. […]
90 μL of cells (5×10^5 cells/mL) were plated into each well of 96-well plates (Corning, Lowell, Mass.; MacLean et al., Bioinformatics, 26:966-968 (2010)) and were treated with 10 μL of bortezomib at the final concentrations of 0, 0.0457, 0.1372, 0.4115, 1.2346, 3.7037, 11.1111, 33.3333 and 100 nM. […] Plates were then read in a microplate reader at absorbance of OD 490 (Tecan AG, Switzerland).

MDA-MB-468 cells [3] = assay: Pulse-chase measurement of protein degradation (35S-Met); assay type: cell-based, human
Procedure: FIG. 3. EGFR enhances proteasomal degradation and promotes K48-linked ubiquitin conjugates. (A). MDA-MB-468 cells were serum starved for 24 hours and labeled with ^35S-Met for 24 hours. […] The rate of protein degradation was shown as the fraction of radiolabelled protein remaining over time. Data were mean±SD of three independent experiments. (**: p<0.01, two-way ANOVA test). (B and C). MDA-MB-468 cells were treated as in (A), except that 20 nM bortezomib (B) or 10 μM chloroquine (C) was present in the chase media. Data were mean±SD of three independent experiments. (**: p<0.01, two-way ANOVA test). (D). […] Total Ub conjugates, K48-linked conjugates, and K63-linked conjugates were determined by Western blot, and their intensities were quantitated and normalized to that of β-actin and then to time 0 in each group. Data were mean±SD of three independent experiments. (**: p<0.01, Student's t-test). (E). […] Total Ub conjugates, K48-linked conjugates, and K63-linked conjugates were determined by Western blot, and their intensities were quantitated and normalized to that of β-actin and then to control in each group. Data were mean±SD of three independent experiments. (**: p<0.01, Student's t-test). (F). HEK293 cells were transfected with empty vector (Ctrl) or constitutively-active EGFR (encoding the T790M/L858R mutation) and treated with AG-1478. Total Ub conjugates, K48-linked conjugates, and K63-linked conjugates were determined by Western blot, and their intensities were quantitated and normalized to that of β-actin and then to time 0 in each group. Data were mean±SD of three independent experiments. (**: p<0.01, Student's t-test).
FIG. 4. EGF treatment raises the cellular content of Ub conjugates independent of EGFR ubiquitination and new protein synthesis. (A-D). […] Total Ub conjugates (A), K48-linked conjugates (B), and K63-linked conjugates were determined by Western Blot, and their intensities were quantitated and normalized to that of β-actin and then to control at time 0 in each group (D). Data were mean±SD of three independent experiments. (**: p<0.01, Student's t-test). (E). […] At different time points, cells were harvested, and radiolabeled protein remaining in the cell was measured. […] Cells were treated as illustrated in (A), and the radioactivity of remaining in cells was measured. […] The levels of Ub conjugates and β-actin were determined by Western blot (C) and quantitated (D). […]
To assess protein degradation, cells were starved for 30 minutes with methionine-free DMEM and pulse labelled for 16-24 hours with 0.5 mL of medium containing 0.1 mCi of ^35S-Met. […] After washing in cold PBS, cells were treated in chase medium for various times, and the remaining radioactivity in cells was measured as described elsewhere (Taelman et al., Cell, 143:1136-1148 (2010)). […]

MDA-MB-468 cells [4] = assay: Immunoblot of Ub Y59 phosphorylation with anti-pY59 antibody; assay type: cell-based, human; conditions: 20 ng EGF, time dependent; FIG. 7D
Procedure: FIG. 7. EGFR phosphorylates ubiquitin. (A). An in vitro kinase assay was performed at 30° C. for 1 hour in the presence of EGFR and different tetra-Ub chain or free Ub. The gels were subjected to western blot with anti-phosphor-tyrosine antibody (upper panel) or Coomassie brilliant blue (CBB) staining (lower panel). (B). Lysates from EGF treated cells was trypsinized and subjected to liquid chromatography tandem mass spectrometry (LC-MS/MS) analysis. (C). […] Absolute quantification of […] and TLSD(pY)[…] from control of EGF treated cells were quantified by Parallel Reaction Monitoring. Data were mean±SD of three independent experiments. (**: p<0.01, Student's t-test). […] Cell lysates were blotted with the anti-pY59 antibody. (E). […] Cell lysates were blotted with antibodies against pY59 and β-actin. (F). WT Ub- and Ub Y59F-replacement cells were serum starved and induced with DOX for 72 hours to replace endogenous Ub with WT Ub or Ub Y59F. […] Cell lysates were blotted with antibodies against pY59 and β-actin.
Cell lysates were prepared, and immunoprecipitation and immunoblotting were performed as described elsewhere (Deng et al., Mol. Cell, 61:614-624 (2016)). In brief, cells were lysed with NETN buffer (20 mM Tris-HCl, pH 8.0, 100 mM NaCl, 1 mM EDTA, 0.5% Nonidet P-40) containing 50 mM β-glycerophosphate, 10 mM NaF, and 1 mg/mL each of pepstatin A and aprotinin. […]

## CC(O)C(=O)O.CN1CCN(c2ccc3nc(-c4c(N)c5c(F)cccc5[nH]c4=O)[nH]c3c2)CC1 [TKI-258, Dovitinib (TKI 258)]
NIH-3T3 cells; FGFb and TKI-258, FIGS. 6I-L
  effect on increase in Ub conjugates induced by FGFb: blocked

## N#CC(=C(/N)Sc1ccccc1N)/C(C#N)=C(\N)Sc1ccccc1N [U0126]
MDA-MB-468 cells [1]; pretreated 12 hours before EGF treatment, FIGS. 5B-E
  effect on stimulation of Ub chain assembly by EGF: did not affect

## CC(C)C[C@H](NC(=O)[C@H](Cc1ccccc1)NC(=O)c1cnccn1)B(O)O [bortezomib]
[2]
  bortezomib sensitivity: much higher

## C[C@@H]1C[C@@H]([C@H](O)CC2CC(=O)NC(=O)C2)C(=O)[C@@H](C)C1 [cycloheximide]
MDA-MB-468 cells [3]; 100 μg/mL cycloheximide by itself, chloroquine in chase, FIG. 4G
  proteasomal proteolysis: reduced

## EGF: growth factor used to activate EGFR (NSDSECPLSHDGYCLHDGVCMYIEALDKYACNCVVGYIGERCQYRDLKWWELR; Epidermal growth factor; UniProt P01133 971-1023, looked up)
MDA-MB-468 cells [3]; EGF in chase medium, FIG. 3A
  rate of protein degradation: decrease
MDA-MB-468 cells [3]; EGF, in the presence of 20 nM bortezomib, FIG. 3B
  lysosome-dependent degradation: inhibited
MDA-MB-468 cells [3]; EGF, in the presence of 10 μM chloroquine, FIG. 3C
  proteasome-mediated proteolysis: increased dramatically
MDA-MB-468 cells [4]
  phosphorylation of Ub: dramatic increase
MDA-MB-468 cells [1]; 20 ng EGF, time dependent, FIG. 3D
  cellular ubiquitin conjugates: significantly higher

## FGFb: FGF basic, growth factor used to activate FGFR
NIH-3T3 cells; 20 ng/mL FGFb for 20 minutes, FIGS. 6A-D
  increase in total content of ubiquitinated proteins and K48-linked Ub conjugates: 50%
NIH-3T3 cells; 20 ng/mL FGFb, FIGS. 6A-D
  treatment time to maximal increase in Ub conjugates: 40 min
